*: point of attachment. Biotin = O=C1N[C@H]2[C@H](CS[C@H]2CCCCC(=O)*)N1
Legend:
normal mouse serum = details: 37° C.

Substance | cleaved bond (normal mouse serum; up to 24 h) | cleaved bond (normal mouse serum; up to 6 h) | further results
biotin-NCVPhNLRGDLQVLAQKVCRDTKAD-amide | Asn1-C2 | – | –
Biotin-CAVPNLRGDLQVLAQKVCRTK-NH2 (cysteine pairing not given here) | – | C18-arginine19 | –
Biotin-CAVPNLRGDLQVLAQKVCRTK-NH2 (cysteine pairing not given here) [C1C18 DFBP] | – | C18-arginine19, 2 h | –
Biotin-NCVPNLRGDLQVLAQKVCRTK-NH2 (cysteine pairing not given here) | – | C18-arginine19, 2 h | –
acetyl-NCVPhNLRGDLQVLADQKVCRDTKD-biotin [C2C18 Ph AD RDTKD DFBP] | – | – | cell surface half-life (internalization) (BxPC-3 cells): 11.93 min
Biotin-NCVPNLRGDLQVLAQKVCRDTKAD-NH2 (cysteine pairing not given here) | Asn1-C2 | – | –

Reference: patent publication US20240209034A1 (priority 2021, published 2024)
